Values of other authors, collected in patent US9974839B2, “Self-assembled toroidal-spiral particles and manufacture and uses thereof” (THE BOARD OF TRUSTEES OF THE UNIVERSITY OF ILLINOIS, priority 2009, dated 2018).

Test system: mitogenic activity
Settings: in vitro

## mono-PEGylated epidermal growth factor (EGF) with PEG 3400 at Lys28 and Lys48: literature EGF mono-PEGylated with PEG 3400 at Lys28 and Lys48 (ref. 28) (NSDSECPLSHDGYCLHDGVCMYIEALDKYACNCVVGYIGERCQYRDLKWWELR; Epidermal growth factor PEG 3400; UniProt P01133 971-1023, looked up)
  mitogenic activity relative to EGF isomer PEGylated at the amino terminus: significantly less active
